From PubChem BioAssay (NCI)
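Protocol summary: plate cells (96-well), add compound at 5 concentrations, incubate 48 h, interpolate endpoints linearly. At the GI50, growth is halved. At the TGI there is no net growth.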

Tests used:
Experiment in all cases: inhibition of tumour cell growth, NCI panel, 48 h
[1] = test system: 786-0 renal
[2] = test system: A498 renal
[3] = test system: A549 NSCLC
[4] = test system: ACHN renal
[5] = test system: BT-549 breast
[6] = test system: CAKI-1 renal
[7] = test system: CCRF-CEM leukemia
[8] = test system: COLO 205 colon
[9] = test system: DU-145 prostate
[10] = test system: EKVX NSCLC
[11] = test system: HCC-2998 colon
[12] = test system: HCT-116 colon
[13] = test system: HCT-15 colon
[14] = test system: HL-60(TB) leukemia
[15] = test system: HOP-62 NSCLC
[16] = test system: HOP-92 NSCLC
[17] = test system: HS 578T breast
[18] = test system: HT29 colon
[19] = test system: IGROV1 ovarian
[20] = test system: K-562 leukemia
[21] = test system: KM12 colon
[22] = test system: LOX IMVI melanoma
[23] = test system: M14 melanoma
[24] = test system: MALME-3M melanoma
[25] = test system: MCF7 breast
[26] = test system: MDA-MB-231 breast
[27] = test system: MDA-MB-435
[28] = test system: MOLT-4 leukemia
[29] = test system: NCI-H226 lung
[30] = test system: NCI-H23 lung
[31] = test system: NCI-H460 lung
[32] = test system: NCI-H522 lung
[33] = test system: NCI/ADR-RES ovarian
[34] = test system: OVCAR-3 ovarian
[35] = test system: OVCAR-4 ovarian
[36] = test system: OVCAR-5 ovarian
[37] = test system: OVCAR-8 ovarian
[38] = test system: PC-3 prostate
[39] = test system: RPMI-8226 leukemia
[40] = test system: RXF 393 renal
[41] = test system: SF-268 CNS
[42] = test system: SF-295 CNS
[43] = test system: SF-539 CNS
[44] = test system: SK-MEL-2 melanoma
[45] = test system: SK-MEL-28 melanoma
[46] = test system: SK-MEL-5 melanoma
[47] = test system: SK-OV-3 ovarian
[48] = test system: SN12C renal
[49] = test system: SNB-19 CNS
[50] = test system: SNB-75 CNS
[51] = test system: SR leukemia
[52] = test system: SW-620 colon
[53] = test system: T-47D breast
[54] = test system: TK-10 renal
[55] = test system: U251 CNS
[56] = test system: UACC-257 melanoma
[57] = test system: UACC-62 melanoma
[58] = test system: UO-31 renal

**Q.** Which GI50 [1] does the source give for CCCNNC(=O)/C=C/c1ccc(CNCCc2c(C)[nH]c3ccccc23)cc1 here?
**A.** 57 nM

**Q.** What about the TGI [1] of the same compound?
**A.** 1200 nM

**Q.** And the GI50 [2]?
**A.** 9.55 nM

**Q.** What about the TGI [2] of the same compound?
**A.** 24.4 nM

**Q.** What about the GI50 [3] of the same compound?
**A.** 68.9 nM

**Q.** What about the TGI [3] of the same compound?
**A.** 2020 nM

**Q.** What about the GI50 [4] of the same compound?
**A.** 28.4 nM

**Q.** What about the TGI [4] of the same compound?
**A.** 116 nM

**Q.** What about the GI50 [5] of the same compound?
**A.** 280 nM

**Q.** And the TGI [5]?
**A.** 4710 nM

**Q.** What about the GI50 [6] of the same compound?
**A.** 36.9 nM

**Q.** What about the TGI [6] of the same compound?
**A.** 123 nM

**Q.** And the GI50 [7]?
**A.** 13.8 nM

**Q.** What about the TGI [7] of the same compound?
**A.** 6430 nM

**Q.** And the GI50 [8]?
**A.** 11.1 nM

**Q.** And the TGI [8]?
**A.** 42.8 nM

**Q.** What about the GI50 [9] of the same compound?
**A.** 32.2 nM

**Q.** What about the TGI [9] of the same compound?
**A.** 3350 nM

**Q.** What about the GI50 [10] of the same compound?
**A.** 74 nM

**Q.** What about the TGI [10] of the same compound?
**A.** 3730 nM

**Q.** And the GI50 [11]?
**A.** 44.9 nM

**Q.** What about the TGI [11] of the same compound?
**A.** 115 nM

**Q.** What about the GI50 [12] of the same compound?
**A.** 8.87 nM

**Q.** And the TGI [12]?
**A.** 324 nM

**Q.** And the GI50 [13]?
**A.** 95.4 nM

**Q.** And the TGI [13]?
**A.** 3160 nM

**Q.** What about the GI50 [14] of the same compound?
**A.** 12.3 nM

**Q.** And the TGI [14]?
**A.** 3960 nM

**Q.** What about the GI50 [15] of the same compound?
**A.** 31 nM

**Q.** And the TGI [15]?
**A.** 785 nM

**Q.** And the GI50 [16]?
**A.** 6.93 nM

**Q.** What about the TGI [16] of the same compound?
**A.** 74.4 nM

**Q.** And the GI50 [17]?
**A.** 43.7 nM

**Q.** And the TGI [17]?
**A.** 621 nM

**Q.** And the GI50 [18]?
**A.** 12.3 nM

**Q.** What about the TGI [18] of the same compound?
**A.** 1530 nM

**Q.** What about the GI50 [19] of the same compound?
**A.** < 33.9 nM

**Q.** And the TGI [19]?
**A.** 216 nM

**Q.** What about the GI50 [20] of the same compound?
**A.** 11.1 nM

**Q.** What about the TGI [20] of the same compound?
**A.** 3780 nM

**Q.** What about the GI50 [21] of the same compound?
**A.** 48.5 nM

**Q.** What about the TGI [21] of the same compound?
**A.** 966 nM

**Q.** And the GI50 [22]?
**A.** 36.8 nM

**Q.** And the TGI [22]?
**A.** 79.7 nM

**Q.** What about the GI50 [23] of the same compound?
**A.** 23 nM

**Q.** What about the TGI [23] of the same compound?
**A.** 1940 nM

**Q.** And the GI50 [24]?
**A.** 15 nM

**Q.** What about the TGI [24] of the same compound?
**A.** 1220 nM

**Q.** What about the GI50 [25] of the same compound?
**A.** 25.2 nM

**Q.** And the TGI [25]?
**A.** 3600 nM

**Q.** And the GI50 [26]?
**A.** 70.8 nM

**Q.** What about the TGI [26] of the same compound?
**A.** 3740 nM

**Q.** What about the GI50 [27] of the same compound?
**A.** 49.4 nM

**Q.** What about the TGI [27] of the same compound?
**A.** 464 nM

**Q.** And the GI50 [28]?
**A.** 15.2 nM

**Q.** What about the TGI [28] of the same compound?
**A.** 4090 nM

**Q.** And the GI50 [29]?
**A.** 29.1 nM

**Q.** What about the TGI [29] of the same compound?
**A.** 131 nM

**Q.** What about the GI50 [30] of the same compound?
**A.** 54.5 nM

**Q.** What about the TGI [30] of the same compound?
**A.** 3500 nM

**Q.** And the GI50 [31]?
**A.** 72.6 nM

**Q.** And the TGI [31]?
**A.** 3570 nM

**Q.** And the GI50 [32]?
**A.** 44.7 nM

**Q.** And the TGI [32]?
**A.** 4190 nM

**Q.** What about the GI50 [33] of the same compound?
**A.** 169 nM

**Q.** And the TGI [33]?
**A.** 2290 nM

**Q.** And the GI50 [34]?
**A.** 43.3 nM

**Q.** What about the TGI [34] of the same compound?
**A.** 161 nM

**Q.** What about the GI50 [35] of the same compound?
**A.** 52.5 nM

**Q.** And the TGI [35]?
**A.** 6450 nM

**Q.** What about the GI50 [36] of the same compound?
**A.** 11.6 nM

**Q.** And the TGI [36]?
**A.** 191 nM

**Q.** And the GI50 [37]?
**A.** 14.9 nM

**Q.** And the TGI [37]?
**A.** 3920 nM

**Q.** What about the GI50 [38] of the same compound?
**A.** 17.5 nM

**Q.** And the TGI [38]?
**A.** 3740 nM

**Q.** And the GI50 [39]?
**A.** 10.1 nM

**Q.** What about the TGI [39] of the same compound?
**A.** 337 nM

**Q.** What about the GI50 [40] of the same compound?
**A.** 11 nM

**Q.** And the TGI [40]?
**A.** 47.9 nM

**Q.** What about the GI50 [41] of the same compound?
**A.** 74.4 nM

**Q.** What about the TGI [41] of the same compound?
**A.** 951 nM

**Q.** What about the GI50 [42] of the same compound?
**A.** 47.1 nM

**Q.** And the TGI [42]?
**A.** 171 nM

**Q.** What about the GI50 [43] of the same compound?
**A.** 43.5 nM

**Q.** What about the TGI [43] of the same compound?
**A.** 3780 nM

**Q.** And the GI50 [44]?
**A.** 34.2 nM

**Q.** And the TGI [44]?
**A.** 3680 nM

**Q.** And the GI50 [45]?
**A.** 25.3 nM

**Q.** What about the TGI [45] of the same compound?
**A.** 96.4 nM

**Q.** And the GI50 [46]?
**A.** 44.7 nM

**Q.** And the TGI [46]?
**A.** 122 nM

**Q.** What about the GI50 [47] of the same compound?
**A.** 35.7 nM

**Q.** What about the TGI [47] of the same compound?
**A.** 482 nM

**Q.** What about the GI50 [48] of the same compound?
**A.** 63.4 nM

**Q.** What about the TGI [48] of the same compound?
**A.** 3760 nM

**Q.** What about the GI50 [49] of the same compound?
**A.** 76.8 nM

**Q.** What about the TGI [49] of the same compound?
**A.** 2100 nM

**Q.** And the GI50 [50]?
**A.** 75.3 nM

**Q.** And the TGI [50]?
**A.** 2940 nM

**Q.** What about the GI50 [51] of the same compound?
**A.** 19.1 nM

**Q.** And the TGI [51]?
**A.** 4260 nM

**Q.** What about the GI50 [52] of the same compound?
**A.** 17.7 nM

**Q.** And the TGI [52]?
**A.** 237 nM

**Q.** What about the GI50 [53] of the same compound?
**A.** 8.52 nM

**Q.** And the TGI [53]?
**A.** 62.4 nM

**Q.** And the GI50 [54]?
**A.** 5.06 nM

**Q.** What about the TGI [54] of the same compound?
**A.** 133 nM

**Q.** And the GI50 [55]?
**A.** 30.6 nM

**Q.** And the TGI [55]?
**A.** 207 nM

**Q.** And the GI50 [56]?
**A.** 32.3 nM

**Q.** And the TGI [56]?
**A.** 627 nM

**Q.** What about the GI50 [57] of the same compound?
**A.** 23.7 nM

**Q.** What about the TGI [57] of the same compound?
**A.** 74.4 nM

**Q.** What about the GI50 [58] of the same compound?
**A.** 59.3 nM

**Q.** And the TGI [58]?
**A.** 601 nM
